Experimental data published in PubChem BioAssay (NCI).
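Briefly, cells in 96-well plates were exposed to five compound concentrations for 48 h, and endpoints were estimated by linear interpolation. TGI marks complete inhibition of growth.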

Legend:
Experiment in all cases: NCI-60 cell line screen, 48 h
[1] = tested on: MDA-MB-231 breast
[2] = tested on: CCRF-CEM leukemia
[3] = tested on: IGROV1 ovarian
[4] = tested on: K-562 leukemia
[5] = tested on: M14 melanoma
[6] = tested on: KM12 colon
[7] = tested on: PC-3 prostate
[8] = tested on: SK-OV-3 ovarian
[9] = tested on: ACHN renal
[10] = tested on: UACC-257 melanoma
[11] = tested on: T-47D breast

SMILES	TGI [1]	TGI [2]	TGI [3]	TGI [4]	TGI [5]	TGI [6]	TGI [7]	TGI [8]	TGI [9]	TGI [10]	TGI [11]
COC(=O)c1c(OC(C)=O)ccc2c1c1c(OC(C)=O)c3ccccc3c(OC(C)=O)c1n2Cc1ccccc1	37.2 µM	45 µM	19.7 µM	> 50 µM	17.2 µM	5.65 µM	32 µM	19.5 µM	47.1 µM	> 50 µM	10.5 µM
CCOc1ccc(-n2nnc3c(N)nc(N)nc32)cc1	> 100 µM	> 100 µM	> 100 µM	> 100 µM	> 100 µM	> 100 µM	> 100 µM	> 100 µM	> 100 µM	> 100 µM	> 100 µM
c1ccc(CSCCc2ccncc2)cc1	> 100 µM	> 100 µM	> 100 µM	> 100 µM	> 100 µM	> 100 µM	> 100 µM	> 100 µM	> 100 µM	> 100 µM	> 100 µM
CCNC1=C(NC(=O)CC)C(=O)c2ccccc2C1=O	> 100 µM	> 100 µM	> 100 µM	> 100 µM	98.5 µM	> 100 µM	> 100 µM	> 100 µM	> 100 µM	> 100 µM	> 100 µM
CN(C)CCCN1c2ccccc2CCc2ccc([N+](=O)[O-])cc21	> 100 µM	> 100 µM	31 µM	> 100 µM	30.6 µM	33.8 µM	> 100 µM	> 100 µM	> 100 µM	31.8 µM	34.1 µM
CCC(c1c[nH]c2ccc(Br)cc12)c1c[nH]c2ccc(Br)cc12	25.4 µM	13.7 µM	19 µM	6.57 µM	14.2 µM	4.22 µM	17.1 µM	24.1 µM	12.8 µM	23.9 µM	7.97 µM
Cc1ccc2c(=O)cc(-c3ccc(-c4ccccc4)s3)[nH]c2n1	> 100 µM	> 100 µM	> 100 µM	> 100 µM	> 100 µM	> 100 µM	85.5 µM	> 100 µM	> 100 µM	> 100 µM	> 100 µM
COC(=O)C1=C(C)N2[C@H](C(=O)O)CO[C@@]2(C)[C@H](C(=O)OC)[C@H]1c1cccc([N+](=O)[O-])c1	> 100 µM	> 100 µM	> 100 µM	> 100 µM	> 100 µM	> 100 µM	> 100 µM	> 100 µM	> 100 µM	> 100 µM	> 100 µM
CC[C@@H](/C=C\CCC(=O)C[C@H](O)CCC=C(C)C)O[Si](C(C)C)(C(C)C)C(C)C	> 100 µM	> 100 µM	> 100 µM	> 100 µM	> 100 µM	> 100 µM	> 100 µM	> 100 µM	> 100 µM	> 100 µM	> 100 µM
CC1OC(OC2C(OC(=O)[C@@H]3CC(C)(C)C[C@H]4C5=CC[C@@H]6[C@@]7(C)C[C@H](O)[C@H](OC8OC(CO)C(O)C(O)C8O)[C@@](C)(CO)[C@@H]7[C@H](O)C[C@@]6(C)[C@]5(C)CC[C@@]34C)OCC(O)C2O)C(O)C(O)C1O (stereo not given in full)	> 7.5 µM	> 7.5 µM	> 7.5 µM	> 7.5 µM	> 7.5 µM	> 7.5 µM	> 7.5 µM	> 7.5 µM	> 7.5 µM	> 7.5 µM	> 7.5 µM
C[C@H]1C=C2[C@@H]3CC(C)(C(=O)O)CC[C@]3(C)CC[C@]2(C)[C@]2(C)CC[C@H]3C(C)(C)[C@@H](OC(=O)c4cccc5c(=O)c6ccccc6[nH]c45)CC[C@]3(C)[C@@H]12 (stereo not given in full)	> 100 µM	> 100 µM	> 100 µM	> 100 µM	> 100 µM	> 100 µM	> 100 µM	> 100 µM	> 100 µM	> 100 µM	87.5 µM
OC(c1ccc(-c2ccccc2)cc1)C(F)(F)c1nc2ccccc2o1 (stereo not given)	> 96.6 µM	> 100 µM	> 100 µM	> 61.3 µM	> 100 µM	> 100 µM	> 100 µM	> 100 µM	> 100 µM	> 100 µM	> 100 µM
OC1(c2ccccc2)CSC2=Nc3ccccc3C3CCN1N23 (stereo not given)	31.9 µM	94.1 µM	27.4 µM	> 100 µM	38.3 µM	42 µM	29.5 µM	> 100 µM	54.1 µM	86.8 µM	47.5 µM
CCC[C@H](C)C[C@H](C)C[C@H](C)/C=C(\C)[C@@H](O)[C@@H](C)C(=O)CC	44.6 µM	52.8 µM	36.2 µM	38 µM	35.7 µM	42 µM	37.2 µM	> 100 µM	39 µM	38.9 µM	50.8 µM
COc1ccc(-n2cnc3c(NC(CCSC)C(=O)O)ncnc32)cc1 (stereo not given)	> 100 µM	> 100 µM	> 100 µM	> 100 µM	> 100 µM	> 100 µM	> 100 µM	> 100 µM	> 100 µM	> 100 µM	> 100 µM
